Assay results: US20240059729A1, “MULTIFUNCTIONAL CYCLIC DINUCLEOTIDE AND USE THEREOF” (TYLIGAND BIOSCIENCE (SHANGHAI) LIMITED, priority 2020, published 2024)
Counter-ions that a name gives are not always drawn.

What was measured:
[1] = system: IFN-β secretion by THP-1 cells; assay: Activation of IFN-β secretion by THP-1 cells (Human IFN-beta ELISA); format: cell-based; conditions: for EC50 / Activating effect on IFN-β secretion / STING agonist activity (in words): THP-1 cells; for EC50: 24 hours, IFN-β ELISA; for Activating effect on IFN-β secretion / STING agonist activity (in words): EC50 compared with 2′,3′-cGAMP and ADU-S100
Procedure: THP-1 cell, a human monocytic leukemia cell line, has the STING phenotype of HAQ type, i.e., R71H-G230A-R293Q. This assay used the Human IFN-beta DuoSet ELISA Kit from R & D (R & D, Cat #DY814-05) and the DuoSet ELISA Ancillary Reagent Kit 2 (R & D, Cat #DY008) to evaluate the activation of IFN-β secretion from THP-1 cells by representative compounds of the invention.
In thawing the THP-1 cells (ATCC #TIB-202), a cell freezing tube was quickly shaken in a water bath at 37° C. to thaw the cells within 1 min. The thawed cell suspension was taken and evenly mixed with an RPMI1640 medium (Hyclone, product #SH30027.01) containing 10% FBS (Life Technology, Cat #10099-141), centrifuged for 5 min at 1000 rpm, and the supernatant was discarded. The cell pellet was resuspended in 5 mL of the complete medium (RPMI 1640 medium containing 10% FBS), placed into a cell culture flask with a bottom area of 25 cm^2, and incubated in a cell incubator at 37° C., 5% CO2 and 95% humidity. When the cell confluence reached about 80%, the cells were passaged. All the cells in the culture flask were transferred to a 15 mL centrifuge tube, centrifuged for 5 min at 1000 rpm, and the supernatant was discarded. 5 mL of fresh complete medium was added to re-suspend the cell pellet, 1 mL of which was taken to place in a cell culture flask with a bottom area of 25 cm^2, supplemented with 4 mL of fresh complete medium for further incubation. When the cell confluence reached about 80% again, plating was conducted following the procedure of cell passage, retaining 1/5 cell suspension for further inculation and remaining 4/5 of the cell suspension in a 15 mL centrifuge tube. The cell suspension was centrifuged to discard the old culture medium, washed once using RPMI1640 culture medium (serum-free), and centrifuged to remove the supernatant. The cells were then re-suspended in RPMI1640 culture medium (serum-free). Cell viability was then detected by Trypan blue exclusion test and to be used for plating when the cell viability was confirmed to be more than 95%. A cell suspension with a density of 1.1×10^6 viable cells/mL was prepared using RPMI1640 culture medium (serum-free), and 180 μL of the cell suspension was added to a 96-well cell culture plate (NUNC Company, Cat #167008) so that the cell density in the plate was 2×10^5 viable cells/well.
(§1) A 10 mM stock solution of the compounds in DMSO was first serially diluted at 3.16-fold with DMSO (Sigma, Cat #D2650) to the 5th concentration, and the 6th concentration was set as DMSO control (compound-free). Then, the DMSO solutions containing different concentrations of the compounds were diluted at 10-fold with PBS so that the DMSO content in each compound solution of various concentrations was 10%. Finally, 20 μL of each of such solutions was added into corresponding cell culture plate to provide an initial compound concentration of 100 μM, with the dilution fold of adjacent concentrations being 3.16 and the DMSO content in the cell culture plate being 1%. The cell plate was placed in a cell incubator for further 24 hours.
ELISA detection was conducted referring to the instructions from R & D System, Cat #DY814-05.
ELISA plate coating: PBS (R & D System Cat #DY006) was used to dilute the capture antibody (mouse anti-human IFN-β capture antibody PART #844508) to provide the working concentration, and 100 μL capture antibody working solution was added to a 96-well ELISA plate which was then sealed and incubated overnight at room temperature. Upon discarding the capture antibody working solution, the cell plate was washed 3 times with a washing buffer (0.05% Tween-20 in PBS, pH 7.2-7.4, R & D System Cat #WA126) at 400 μL of the washing buffer per well, and the washing buffer was thoroughly removed after each washing, with the final washing to be completely removed of the wash buffer by inverting and claping the plate to a clean piece of paper. […]

[2] = system: CT26 cells; assay: Inhibition of proliferation of CT26 cells (CellTiter-Glo); format: cell-based, mouse; conditions: Mus musculus, 120 hours, CellTiter-Glo
Procedure: CT26 cell is a mouse colorectal cancer cell line. This assay used the CellTiter-Glo Luminescence Cell Vitality Assay kit from Promega to evaluate the inhibitory activity of the compounds on the proliferation of CT26 cells.
In thawing the CT26 cells (ATCC #CRL-2638), a cell freezing tube was quickly shaken in a water bath at 37° C. to thaw the cells within 1 min. The thawed cell suspension was taken and evenly mixed with DMEM medium (GE, Cat #SH30243.01) containing 10% FBS (GIBCO, Cat #10099-141), centrifuged for 5 min at 1000 rpm, and the supernatant was discarded. The cell pellet was resuspended in 5 mL of the complete medium (DMEM medium containing 10% FBS), placed into a cell culture flask with a bottom area of 25 cm^2, and incubated in a cell incubator at 37° C., 5% CO2 and 95% humidity. When the cell confluence reached 70%˜80%, the cells were passaged. All the cells in the culture flask were transferred to a 15 mL centrifuge tube, centrifuged for 5 min at 1000 rpm, and the supernatant was discarded. 5 mL of fresh complete medium was added to re-suspend the cell pellet, 1 mL of which was taken to place in a cell culture flask with a bottom area of 25 cm^2, supplemented with 4 mL of fresh complete medium for further incubation. When the cell confluence reached 70%-80% again, plating was conducted following the procedure of cell passage, retaining 1/5 cell suspension for further inculation and remaining 4/5 of the cell suspension in a 15 mL centrifuge tube.
The cell suspension was centrifuged to discard the old culture medium, washed once using DMEM medium (serum-free), and centrifuged to remove the supernatant. The cells were then re-suspended in DMEM medium (serum-free). Cell viability was then detected by Trypan blue exclusion test and to be used for plating when the cell viability was confirmed to be more than 95%. A cell suspension with a density of 1.1×10^4 viable cells/mL was prepared using DMEM medium (serum-free), and 90 μL of the cell suspension was added to a 96-well 96-well transparent flat-bottomed black-walled cell culture plate (Corning, Cat #3603) so that the cell density in the plate was 1000 viable cells/well. A control group containing no cells, no compound, and complete medium only (i.e., a culture medium control), and a control group containing no compound but cells (i.e., a cell control) were set. The cell plates were placed in a cell incubator overnight.
as §1, with “9th” for “5th”, “10th” for “6th”, “PBS (Solarbio, Cat #P1020)” for “PBS”, “10” for “20”, “120” for “24”
After 120 hours, the CellTiter-Glo reagent (Promega, Cat #G7572) was thawed and the plates were equilibrated at room temperature for 30 min. 100 uL of CellTiter-Glo was added to each well of the plate, and the cells were lysed thoroughly by shaking on an orbital shaker for 5 min. The plates were placed at room temperature for 20 min to stabilize the luminescence signal, and the luminescence value of each well was scanned at full wavelength with a multifunctional microplate reader (Molecular Devices, Spectramax M3). […]

[3] = system: CT26 cells; assay: Anti-tumor activity in bilateral transplantation tumor model of CT26 syngeneic mouse; format: in vivo, BALB/c mice; conditions: Day 13 post-dose; 50 μg/mouse intratumorally right side, Day 0 and Day 4
Procedure: BALB/c mice of 6-8 weeks (purchased from Shanghai Ling Chang Biotech Co., Ltd.) were inoculated with 5×10^5 CT26 cells (supplied by Taicang Zexin Biotechnology Co., Ltd., ATCC #CRL-2638) subcutaneously on the left and right back dorsal, respectively, and the inoculation volume was 0.1 mL/side. When tumors grew to an average volume of 100 mm^3, they were randomized according to tumor size and mouse body weight and dosing was initiated. The day of the first dose was Day 0.
Two doses were administered on Day 0 and Day 4, with 50 μg of compound/mouse (i.e., 2.5 mg/kg) injected intratumorally right side, with the same volume of PBS (Hyclone, Cat #SH30258.01) as a control. The tumor on the left side was not treated. The control mice were sacrificed 13 days and the treated mice were sacrificed 21 days, after dosing. During the experiment, tumor volumes on the left and right sides and the body weights were measured 3 times per week, and the tumor volume was calculated as V=D×d×d/2 (where D represents length of tumor and d represents width of tumor).

Row | Structure (SMILES) | EC50 ([1]; Homo sapiens, THP-1, 24 h) [µM] | IC50 [2] [µM] | other results
1 | Nc1nc(Cl)nc2c1ncn2[C@@H]1O[C@@H]2CO[P@@](=O)(S)OC3C(O)[C@@H](CO[P@@](=O)(S)OC2C1F)O[C@H]3n1cnc2c(N)ncnc21 (stereo partly drawn) [Example 5, (2′,3′)-cyclo-(Rp,Rp)-[2′-O-phosphorothioate-diester-adenosine]-[3′-O-phosphorothioate-diester-2-chloro-2′-deoxy-2′-fluoro-beta-adenosine] diammonium salt] | 10.1 to 100 | 1 to 10 | 
2 | Nc1nc(Cl)nc2c1ncn2[C@H]1CC2O[P@](=O)(S)OC[C@H]3O[C@@H](n4cnc5c(N)nc(Cl)nc54)CC3O[P@](=O)(S)OC[C@H]2O1 (stereo partly drawn) [Example 2, (3′,3′)-cyclo-(Rp,Rp)-bis-[3′-O-phosphorothioate-diester-2-chloro-2′-deoxyadenosine]] |  | 1 to 10 | 
3 | Nc1nc(Cl)nc2c1ncn2[C@H]1C[C@H](O)[C@@H](CO)O1 [Cladribine, cladribine, reference compound] |  | < 1 | 
4 | Nc1nc2c(ncn2[C@@H]2O[C@@H]3CO[P@@](=O)(S)OC4C(F)[C@H](n5cnc6c(N)nc(Cl)nc65)O[C@@H]4CO[P@](=O)(S)OC3C2O)c(=O)[nH]1 (stereo partly drawn) [Example 16, (3′,3′)-cyclo-(Rp,Rp)-[3′-O-phosphorothioate-diester-guanosine]-[3′-O-phosphorothioate-diester-2-chloro-2′-deoxy-2′-fluoro-beta-adenosine] diammonium salt] |  | 1 to 10 | EC50 ([1]; diammonium salt): 1 to 10 µM; Activating effect on IFN-β secretion / STING agonist activity (in words) [1]: significant STING agonist activity; Highest concentration of IFN-β secreted by stimulated THP-1 cells ([1]; compared with ADU-S100): higher than that of ADU-S100; Growth inhibition rate, untreated left tumor [3]: 71.7%
5 | Nc1ccn([C@@H]2O[C@H](CO)[C@@H](O)C2(F)F)c(=O)n1 [Gemcitabine, gemcitabine, reference compound] |  | < 1 | 
6 | Nc1nc2c(ncn2[C@@H]2O[C@@H]3CO[P@@](=O)(S)OC4C[C@H](n5cnc6c(N)nc(Cl)nc65)O[C@@H]4CO[P@@](=O)(S)OC2C3O)c(=O)[nH]1 (stereo partly drawn) [Example 12, (2′,3′)-cyclo-(Rp,Rp)-[2′-O-phosphorothioate-diester-guanosine]-[3′-O-phosphorothioate-diester-2-chloro-2′-deoxy-adenosine] diammonium salt] | 1 to 10 | 1 to 10 | Activating effect on IFN-β secretion / STING agonist activity (in words) [1]: significant STING agonist activity; Growth inhibition rate, untreated left tumor [3]: 75.3%
7 | Nc1ccn([C@@H]2O[C@@H]3CO[P@@](=O)(S)O[C@H]4C(O)[C@@H](CO[P@@](=O)(S)O[C@@H]3C2(F)F)O[C@H]4n2cnc3c(=O)[nH]c(N)nc32)c(=O)n1 (stereo partly drawn) [Example 13, (2′,3′)-cyclo-(Rp,Rp)-[2′-O-phosphorothioate-diester-guanosine]-[3′-O-phosphorothioate-diester-2′-deoxy-2′,2′-difluorocytidine]diammonium salt] | 10.1 to 100 | < 1 | 
8 | CCCC(CCC)C(=O)Nc1ccn([C@@H]2O[C@H](CO)[C@@H](O)C2(F)F)c(=O)n1 [LY2334737, N4-(2-propylpentanoyl)-2′-deoxy-2′,2′-difluorocytidine, reference compound] |  | 1 to 10 | 
9 | Nc1nc(Cl)nc2c1ncn2[C@@H]1O[C@@H]2CO[P@@](=O)(S)OC3[C@@H](F)[C@H](n4cnc5c(N)nc(Cl)nc54)O[C@@H]3CO[P@@](=O)(S)O[C@@H]2C1F (stereo partly drawn) [Example 1, (3′,3′)-cyclo-(Rp,Rp)-bis-[3′-O-phosphorothioate-diester-2-chloro-2′-deoxy-2′-fluoro-beta-adenosine]1.5-ammonium-0.5-1,8-diazabicycloundec-7-ene-salt] |  | 1 to 10 | 
